Like-named read-outs stand apart in the source and are kept apart here.
Columns and labels:
SK-OV3 = assay: Inhibition of cells growth by colorimetric assay (SRB), SK-OV3; type: cell-based
Method in brief: (§1)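 Absorbance at 490 nm of sulphorhodamine B bound by TCA-fixed cells gives the growth readout after 48 h continuous exposure to test samples (10 to 10^−8 μg/ml). Cells were seeded at 5×10^3 per well in RPMI 1640/10% FBS and allowed 18 h to attach first.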

(HEPG2) = conditions: human, 24 h, 30 μM
physchem = conditions: pH 7.4, log D n-Octanol-Dulbecco's PBS pH 7.4
[1] = tested on: NRK-52E, normal rat kidney cells; conditions: 24 h
Protocol: (§2) In order to assess the cytotoxicity of the drugs to normal cells, we used 96 well plates plated at a density of 5000 cells per well (except for the FDC-P1 which were plated at 12,000 cells per well) with normal cell lines (ATCC, Table 1) maintained as per the directions of the ATCC: AML-12, normal mouse liver cells; NRK-52E, normal rat kidney cells; L8, normal rat skeletal muscle cells; FDC-P1, normal mouse myelogeous stem cells; and H9c2 (2-1), normal rat cardiac muscle cells. The cells in each plate were permitted to settle overnight before adding the test drug.
(§3) To each well (100 μl medium) 10 μl of drug in media was added at varying concentrations (1×10-10-0.01 mg/ml final concentration) and further incubated overnight at 37° C. with 5% CO2. After 24 h the following assays were performed. All experiments were repeated at least 3 times and were assayed in duplicate.
(§4) MTS assay (CellTiter 96 aqueous) was performed according to the manufacturer's (Promega) directions (for all cell types). Cell viability (mitochondrial activity) is determined via enzymatic conversion of the formazan substrate.

CYP3A4 = CYP3A4 (Homo sapiens, UniProt P08684); conditions: 30 min, 10 µM
[2] = tested on: FDC-P1, normal mouse myelogeous stem cells; conditions: 24 h
Protocol: as §2, §3, §4

[3] = tested on: AML-12, normal mouse liver cells; conditions: 24 h
[4] = s9, 60 min, 1 μM
H-MEC-1 = assay: Inhibition of cells growth by colorimetric assay (SRB), H-MEC-1; type: cell-based; conditions: for CC50: Homo sapiens
Method in brief: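 Seeding density 5×10^3 cells/well; attachment 18 h in drug-free medium; exposure 48 h, 10 to 10^−8 μg/ml. Fixation cold TCA 60 min at 4° C, SRB 10 min, absorbance 490 nm.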

[5] = tested on: H9c2 (2-1), normal rat cardiac muscle cells; conditions: 24 h
Protocol: as §2, §3, §4

MEL-28 = assay: cells; type: cell-based; conditions: for CC50: read-out: LC50
Method in brief: as §1

K562 = assay: cells; type: cell-based; conditions: for CC50: read-out: LC50
Method in brief: as §1

IGROV = assay: cells; type: cell-based
Method in brief: as §1

DU145 = assay: cells; type: cell-based; conditions: for CC50: read-out: LC50
Method in brief: as §1

PANC-1 = assay: cells; type: cell-based; conditions: for CC50: read-out: LC50
Method in brief: as §1

HT29 = assay: cells; type: cell-based
Method in brief: as §1

SK-BR3 = assay: cells; type: cell-based; conditions: for CC50: read-out: LC50
Method in brief: as §1

LOVO = assay: cells; type: cell-based; conditions: for CC50: read-out: LC50
Method in brief: as §1

A549 = assay: cells; type: cell-based; conditions: for GI50: read-out: GI50
Method in brief: as §1

IGROV-ET = assay: cells; type: cell-based; conditions: IGROV-ET; for CC50: read-out: LC50
Method in brief: as §1

LNCAP = assay: cells; type: cell-based
Method in brief: as §1

LOVO-DOX = assay: cells; type: cell-based; conditions: for GI50 / TGI: LOVO-DOX
Method in brief: as §1

CYP2D6 = CYP2D6 (Homo sapiens, UniProt P10635); assay: in vitro; conditions: CYP2D6 (% inhibition)
Protocol: For CYP2D6 inhibition assay, the compound are tested at 10 μM in duplicate with a 0.25% final concentration of both methanol and acetonitrile in presence of the fluorescent substrate AMMC (3-[2-N,N-diethyl-N-methylammonium)ethyl]-7-methoxy-4-methylcoumarin) at the concentration of 1.5 μM). The conversion of the AMMC in AHMC (3-[2-N,N-diethyl-N-methylammonium)ethyl]-7-hydroxy-4-methylcoumarin) is determined spectrofluorimetry after incubation with the enzyme during 450 min at 37° C.
For both assays, the fluorescent intensity measured at t=0 is subtracted from that measured after the appropriate incubation time. The ratio of signal-to-noise is calculated by comparing the fluorescence in incubations containing the test compound to the control samples containing the same solvent vehicle. The percent of control activity is calculated and reported as percent inhibition.

[6] = tested on: L8, normal rat skeletal muscle cells; conditions: 24 h
[7] = H-MEC-1, 48 hours exposure, SRB
[8] = Homo sapiens, 48 h, 48 hours exposure, SRB
[9] = Homo sapiens, DU-145, 48 h, DU145, 48 hours exposure, SRB
[10] = Homo sapiens, PANC-1, 48 h, PANC-1, 48 hours exposure, SRB
[11] = Homo sapiens, LNCaP, 48 h, 48 hours exposure, SRB

Chain of CYP3A4 (P08684 whole entry): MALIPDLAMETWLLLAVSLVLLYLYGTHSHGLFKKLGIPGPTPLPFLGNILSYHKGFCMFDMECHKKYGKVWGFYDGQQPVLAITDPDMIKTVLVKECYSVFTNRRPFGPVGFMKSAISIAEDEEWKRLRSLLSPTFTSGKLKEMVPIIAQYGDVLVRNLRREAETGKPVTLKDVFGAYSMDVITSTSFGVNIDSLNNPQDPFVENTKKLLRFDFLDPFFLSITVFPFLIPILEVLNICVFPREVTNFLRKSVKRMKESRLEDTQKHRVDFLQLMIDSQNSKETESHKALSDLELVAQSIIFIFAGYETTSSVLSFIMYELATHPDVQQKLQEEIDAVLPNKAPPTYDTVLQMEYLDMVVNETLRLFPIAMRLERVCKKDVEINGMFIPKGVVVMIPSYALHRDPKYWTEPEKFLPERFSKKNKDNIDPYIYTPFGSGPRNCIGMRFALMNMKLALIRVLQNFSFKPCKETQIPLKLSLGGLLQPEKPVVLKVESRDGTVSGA
Chain of CYP2D6 (P10635 whole entry): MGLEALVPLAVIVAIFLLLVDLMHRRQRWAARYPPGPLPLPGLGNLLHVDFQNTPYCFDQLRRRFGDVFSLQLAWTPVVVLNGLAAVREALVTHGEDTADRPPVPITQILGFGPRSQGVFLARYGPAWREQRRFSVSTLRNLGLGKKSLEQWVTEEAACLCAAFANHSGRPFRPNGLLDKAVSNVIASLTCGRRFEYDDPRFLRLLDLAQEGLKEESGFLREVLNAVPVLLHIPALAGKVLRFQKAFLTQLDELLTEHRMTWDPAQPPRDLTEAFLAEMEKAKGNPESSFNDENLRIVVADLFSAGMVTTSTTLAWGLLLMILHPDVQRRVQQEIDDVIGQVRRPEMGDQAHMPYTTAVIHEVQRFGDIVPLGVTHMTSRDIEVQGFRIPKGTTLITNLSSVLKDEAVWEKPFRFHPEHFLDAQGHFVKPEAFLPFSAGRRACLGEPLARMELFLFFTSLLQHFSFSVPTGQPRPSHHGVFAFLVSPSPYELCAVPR

COc1c(C)cc2c(c1O)[C@@H]1C3[C@@H]4SC[C@]5(NC(C)Cc6c5[nH]c5ccc(F)cc65)C(=O)COC[C@@H](c5c6c(c(C)c(OC(C)=O)c54)OCO6)N3[C@@H](O)[C@H](C2)N1C (some centres unmarked) [Compound 41]
GI50 (SK-OV3; Homo sapiens, SK-OV-3, 48 h, SK-OV3, 48 hours exposure, SRB): 3.85 nM
CC50 (SK-OV3; Homo sapiens, SK-OV-3, 48 h, read-out: LC50, SK-OV3, 48 hours exposure, SRB): 12700 nM
TGI (SK-OV3; SK-OV3, 48 hours exposure, SRB): 9.82E−09 Molar
Cell Viability (% inhibition) ((HEPG2)): 16 % inhibition
logD at 60 min (physchem): > 4.5
Kidney [1]: 1.89E−08
CYP3A4 (% inhibition) (CYP3A4): 22 % inhibition
Myelo [2]: 1.39E−07
Liver [3]: 6.30E−08
Human Liver S9 Metabolic Stability (% remaining) [4]: 7 % remaining
Solubility Dulbecco's PBS pH 7.4: <1 est μM
GI50 (H-MEC-1; [7]): 4.68 nM
TGI (H-MEC-1; [7]): 4.08E−08 Molar
CC50 (H-MEC-1; HMEC-1, 48 h, read-out: LC50, H-MEC-1, 48 hours exposure, SRB): 12700 nM
Heart [5]: 3.49E−08
GI50 (MEL-28; MEL-28, 48 hours exposure, SRB): 6.72 nM
TGI (MEL-28; MEL-28, 48 hours exposure, SRB): 2.66E−08 Molar
CC50 (MEL-28; MEL-28, 48 hours exposure, SRB): 102 nM
GI50 (K562; K562, 48 hours exposure, SRB): 0.11 nM
TGI (K562; K562, 48 hours exposure, SRB): 2.19E−09 Molar
CC50 (K562; K562, 48 hours exposure, SRB): 5.57 nM
GI50 (IGROV; [8]): 1.94 nM
IC (TGI) (IGROV; [8]): 4.14 nM
CC50 (IGROV; Homo sapiens, 48 h, read-out: LC50, IGROV, 48 hours exposure, SRB): 8.86 nM
GI50 (DU145; [9]): 3.49 nM
IC (TGI) (DU145; [9]): 8.37 nM
CC50 (DU145; DU145, 48 hours exposure, SRB): 9900 nM
GI50 (PANC-1; [10]): 10.8 nM
IC (TGI) (PANC-1; [10]): 48.9 nM
CC50 (PANC-1; PANC-1, 48 hours exposure, SRB): 506 nM
GI50 (HT29; HT29, 48 hours exposure, SRB): 5.66 nM
TGI (HT29; HT29, 48 hours exposure, SRB): 6.07E−08 Molar
CC50 (HT29; Homo sapiens, HT-29, 48 h, read-out: LC50, HT29, 48 hours exposure, SRB): 12700 nM
GI50 (SK-BR3; SK-BR3, 48 hours exposure, SRB): 2.33 nM
TGI (SK-BR3; SK-BR3, 48 hours exposure, SRB): 6.86E−09 Molar
CC50 (SK-BR3; SK-BR3, 48 hours exposure, SRB): 36.3 nM
IC (TGI) (LOVO; Homo sapiens, LoVo, 48 h, 48 hours exposure, SRB): 24.4 nM
GI50 (LOVO; LOVO, 48 hours exposure, SRB): 4.42 nM
CC50 (LOVO; LOVO, 48 hours exposure, SRB): 410 nM
GI50 (A549; Homo sapiens, A549, 48 h, A549, 48 hours exposure, SRB): 19.8 nM
IC (TGI) (A549; Homo sapiens, A549, 48 h, A549, 48 hours exposure, SRB, read-out: TGI): 46.8 nM
CC50 (A549; Homo sapiens, A549, 48 h, read-out: LC50, A549, 48 hours exposure, SRB): 110 nM
GI50 (IGROV-ET; 48 hours exposure, SRB): 3.14 nM
TGI (IGROV-ET; 48 hours exposure, SRB): 2.00E−08 Molar
CC50 (IGROV-ET; 48 hours exposure, SRB): 3860 nM
GI50 (LNCAP; [11]): 2.62 nM
IC (TGI) (LNCAP; [11]): 5.17 nM
CC50 (LNCAP; Homo sapiens, LNCaP, 48 h, read-out: LC50, LNCAP, 48 hours exposure, SRB): 10.2 nM
GI50 (LOVO-DOX; [8]): 30.5 nM
CC50 (LOVO-DOX; Homo sapiens, 48 h, read-out: LC50, LOVO-DOX, 48 hours exposure, SRB): 12700 nM
TGI (LOVO-DOX; 48 hours exposure, SRB): 9.99E−08 Molar
inhibition at 450 min, 10 µM (CYP2D6): 16%
Skeletal [6]: 2.39E−07

COc1c(C)cc2c(c1O)[C@@H]1C3[C@@H]4SC[C@]5(NC(C)Cc6c5[nH]c5ccccc65)C(=O)COC[C@@H](c5c6c(c(C)c(OC(C)=O)c54)OCO6)N3[C@@H](O)[C@H](C2)N1C (some centres unmarked) [Compound 43]
GI50 (SK-OV3; SK-OV3): 3.39 nM
TGI (SK-OV3; SK-OV3): 7.17E−09
CC50 (SK-OV3; read-out: LC50, SK-OV3): 13 nM
logD at 60 min (physchem): > 4.5
Kidney [1]: 4.38E−08
CYP3A4 (% inhibition) (CYP3A4): 15 % inhibition
Myelo [2]: 6.23E−08
Liver [3]: 7.57E−08
Human Liver S9 Metabolic Stability (% remaining) [4]: 3 % remaining
Solubility Dulbecco's PBS pH 7.4: 5.85 μM
GI50 (H-MEC-1; H-MEC-1): 11.8 nM
TGI (H-MEC-1; H-MEC-1): 1.77E−07
CC50 (H-MEC-1; HMEC-1, read-out: LC50, H-MEC-1): 13000 nM
Heart [5]: 9.42E−08
GI50 (MEL-28; MEL-28): 308 nM
TGI (MEL-28; MEL-28): 5.81E−07
CC50 (MEL-28; MEL-28): 1090 nM
GI50 (K562; Homo sapiens, K562, K562): 2.51 nM
TGI (K562; K562): 4.88E−09
CC50 (K562; K562): 9.49 nM
TGI (IGROV): 5.20E−09
GI50 (IGROV; Homo sapiens): 2.73 nM
CC50 (IGROV; read-out: LC50): 9.88 nM
TGI (DU145; DU145): 9.04E−09
GI50 (DU145; Homo sapiens, DU-145, DU145): 4.76 nM
CC50 (DU145; DU145): 13 nM
GI50 (PANC-1; PANC-1): 5.28 nM
TGI (PANC-1; PANC-1): 1.15E−08
CC50 (PANC-1; PANC-1): 39 nM
TGI (HT29; HT29): 1.04E−07
GI50 (HT29; Homo sapiens, HT-29, HT29): 46.4 nM
CC50 (HT29; Homo sapiens, HT-29, read-out: LC50, HT29): 13000 nM
GI50 (SK-BR3; SK-BR3): 3.77 nM
TGI (SK-BR3; SK-BR3): 8.65E−09
CC50 (SK-BR3; SK-BR3): 41.1 nM
GI50 (LOVO; LOVO): 3.5 nM
TGI (LOVO; LOVO): 8.32E−09
CC50 (LOVO; LOVO): 38.9 nM
TGI (A549; A549): 1.08E−08
GI50 (A549; A549): 5.12 nM
CC50 (A549; read-out: LC50, A549): 32.8 nM
GI50 (IGROV-ET): 9.1 nM
TGI (IGROV-ET): 2.35E−08
CC50 (IGROV-ET): 13000 nM
GI50 (LNCAP; LNCAP): 2.02 nM
TGI (LNCAP; LNCAP): 3.76E−09
CC50 (LNCAP; read-out: LC50, LNCAP): 7 nM
CC50 (LOVO-DOX; Homo sapiens, read-out: LC50, LOVO-DOX): 13000 nM
GI50 (LOVO-DOX): 39.8 nM
TGI (LOVO-DOX): 1.06E−07
Skeletal [6]: 1.60E−07
